Like-named read-outs stand apart in the source and are kept apart here.
Experiments:
[1] = system: steroid 5α-reductase; settings: cited from earlier work; for Reversible / Irreversible inhibition: Table 1, in words beside Ki; for Ki: Table 1, literature references
[2] = target: T1, Human Prostatic Steroid 5α-Reductase (Homo sapiens, UniProt P31213); assay: Inhibition of human steroid 5α-reductase using tissue from hyperplastic human prostates ([14C]-testosterone conversion, Dixon analysis); assay type: biochemical
T1 construct: Prostatic particles were obtained by differential centrifugation; from tissue; host or cells: frozen human prostates (hyperplastic), 140,000 × g particulate fraction
T1 sequence (P31213 1-254): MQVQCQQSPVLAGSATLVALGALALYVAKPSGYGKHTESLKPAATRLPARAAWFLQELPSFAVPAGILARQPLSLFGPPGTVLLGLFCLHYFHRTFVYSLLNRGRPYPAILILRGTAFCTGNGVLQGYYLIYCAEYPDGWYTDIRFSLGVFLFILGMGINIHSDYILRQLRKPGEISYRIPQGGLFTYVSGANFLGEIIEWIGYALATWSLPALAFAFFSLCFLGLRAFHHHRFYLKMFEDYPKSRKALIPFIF
Experimental: Such diseases and conditions include acne vulgaris, seborrhea, female hirsutism, prostate diseases such as benign prostatic hypertrophy, and male pattern baldness. several compounds of the invention were tested for potency in inhibiting human steroid 5α-reductase using tissue from hyperplastic human prostates. In determining potency in inhibiting the human enzyme, the following procedure was employed:
Frozen human prostates were thawed and minced into small pieces (5 mm^3). The tissue was homogenized in 3 to 5 volumes of 20 mM potassium phosphate, pH 6.5, buffer containing 0.33 M sucrose, 1 mM dithiothreitol, and 50 μM NADPH with a Brinkmann Polytron (Sybron Corporation, Westbury, N.Y.). The solution was subjected to sonication for 3 to 5 minutes with a Sonifier (Branson Sonic Power Co.) followed by hand homogenization in a glass-to-glass Dounce homogenizer (Kontes Glass Company, Vineland, N.J.).
Prostatic particles were obtained by differential centrifugation at 600 to 1000 × g for 20 minutes and 140,000 × g for 60 minutes at 4° C. The pellet obtained from the 140,000 × g centrifugation was washed with 5 to 10 tissue volumes of the buffer described above and recentrifuged at 140,000 × g. The resulting pellet was suspended in 20 mM potassium phosphate buffer, pH 6 5, containing 20% glycerol, 1 mM dithiothreitol, and 50 μM NADPH. The suspended particulate solution was stored at -80° C.
A constant amount of [^14 C]-testosterone (52 to 55 mCi/mmol, New England Nuclear, Boston, Mass.) in ethanol and varying amounts of the potential inhibitor in ethanol were deposited in test tubes and concentrated to dryness in a SAVANT Speed Vac. To each tube was added buffer, 20 μl of 10 mM NADPH and an aliquot of prostatic particulate solution to a final volume of 1.0 ml of 50 mM sodium citrate, pH 5.0. After incubating the solution at 37° C. for 20 to 30 minutes the reaction was quenched by the addition of 4 ml ethyl acetate and 0.25 μmol each of testosterone, dihydrotestosterone, androst-aneidiol, and androst-anedione as carriers. The organic layer was removed to a second test tube and evaporated to dryness in a Speed Vac. The residue was dissolved in 20 to 30 μl chloroform, spotted on an individual lane of a 20×20 cm prechannelled silica gel TLC plate (Si 250F-PA, Baker Chemical) and developed twice with acetone:chloroform (1:9). The radiochemical content in the bands of the substrate and the products was determined with a BIOSCAN Imaging Scanner (Bioscan, Inc., Washington, D.C.). The percent of recovered radiolabel converted to product was calculated, from which enzyme activity was determined. All incubations were conducted such that no more than 12% of the substrate (testosterone) was consumed.
The experimentally obtained data was computer fitted to a linear function by plotting the reciprocal of the enzyme activity (1/velocity) against the variable inhibitor concentration (Dixon, M. (1953), Biochem. J., 55, 170). Assuming that the steroidal inhibitor is a competitive inhibitor against testosterone, a value for the inhibition constant (Ki) can be calculated from equation 1:
Ki =(B/A)/(S/Km +1) Equation 1

[3] = system: human steroid 5α-reductase; settings: read-out: Km (Michaelis-Menton constant of the substrate); testosterone as substrate
Excerpt: where B is the intercept on the 1/velocity axis, A is the slope of the line, S is the concentration of substrate (testosterone) used in the experiment, and Km is the Michaelis-Menton constant of the substrate (testosterone)

[4] = human prostatic particulate, pH 5.0, 37° C., 20 to 30 minutes, competitive inhibition against testosterone assumed, read-out: Ki , app

Row | Structure (SMILES) | Reversible / Irreversible inhibition [1] | Ki [1] | Ki [2, 4] | also measured
1 | C[C@]12CC[C@H]3[C@@H](CCC4=CC(=O)CC[C@@]43C)[C@@H]1CC[C@@H]2C(=O)O | Reversible | 1100 nM | – | –
2 | CC(=O)[C@H]1CC[C@H]2[C@@H]3CC=C=CC(=O)CCC(=O)[C@H]3CC[C@]12C | Irreversible | 1000 nM | – | –
3 | CC(CO)[C@H]1CC[C@H]2[C@@H]3CC[C@H]4C(=[N+]=[N-])C(=O)CC[C@]4(C)[C@H]3CC[C@]12C (some centres unmarked) | Irreversible | 3.5 nM | – | time dependence of inhibition (in words) ([1]; literature): potent, time-dependent inhibitor
4 | CC(C)N(C(=O)[C@H]1CC[C@H]2[C@@H]3CC=C4C=C([PH](=O)O)CC[C@]4(C)[C@H]3CC[C@]12C)C(C)C [Example 1, 17β-N,N-Diisopropylcarboxamido-androst-3,5-diene-3-phosphinic acid] | – | – | 7 nM | –
5 | CC(C)(C)NC(=O)[C@H]1CC[C@H]2[C@@H]3CC=C4C=C([PH](=O)O)CC[C@]4(C)[C@H]3CC[C@]12C [Example 2, 17β-N-t-Butylcarboxamide-androst-3,5-diene-3-phosphinic acid] | – | – | 35 nM | –
6 | CC(C)N(C(=O)[C@H]1CC[C@H]2[C@@H]3CC[C@H]4CC([PH](=O)O)=CC[C@]4(C)[C@H]3CC[C@]12C)C(C)C [Example 3, 17β-N,N-Diisopropylcarboxamide-5α-androst-2-ene-3-phosphinic Acid] | – | – | – | Ki [2]: 15 nM
7 | CC(C)N(C(=O)[C@H]1CC[C@H]2[C@@H]3CC[C@H]4C=C([PH](=O)O)CC[C@]4(C)[C@H]3CC[C@]12C)C(C)C [Example 5, 17β-N,N-Diisopropylcarboxamido-5α-androst-3-ene-3-phosphinic acid] | – | – | 25 nM | –
8 | CC(C)N(C(=O)[C@H]1CC[C@H]2[C@@H]3CCC4=CC([PH](=O)O)=CC[C@]4(C)[C@H]3CC[C@]12C)C(C)C [Example 7, 7β-N,N-Diisopropylcarboxamido-androst-2,4-diene-3-phosphinic acid] | – | – | – | Ki [2]: 20 nM
9 | CC(C)N(C(=O)[C@H]1CC[C@H]2[C@@H]3CC=C4C=C(P(C)(=O)O)CC[C@]4(C)[C@H]3CC[C@]12C)C(C)C [Example 9, 17β-N,N-diisopropylcarboxamido-androst-3,5-diene-3-methylphosphinic acid] | – | – | 55 nM | –
10 | C[C@]12CC[C@H]3[C@@H](CCC4=CC(=O)CC[C@@]43C)[C@@H]1CC[C@@H]2O [testosterone] | – | – | – | Km [3]: 4.5 µM
